Patent US5955500A (G. D. Searle & Co., priority 1997, dated 1999)
“And” between values parts separate entries of the source, which are not always exact repeats. Equal entries are not always repeated. Structures can show the parent of a compound that is named as a salt. Where two headings read alike, the source gives them in different places.

How the values were obtained:
[1] = system: supraventricular tachycardia; conditions: intravenous; cited from earlier work
[2] = system: canine heart; conditions: for AH time / Heart rate / Mean arterial pressure: mean ± SE, listed as 50/50S
[3] = pH 5, individual replicates; listed as 50, hydrochloride
[4] = 0.1 mg/kg i.v., 0 min, hydrochloride
[5] = 0.1 mg/kg i.v., 1 min, hydrochloride
[6] = 0.1 mg/kg i.v., 2 min, hydrochloride
[7] = 0.1 mg/kg i.v., 3 min, hydrochloride
[8] = 0.1 mg/kg i.v., 4 min, hydrochloride
[9] = 0.1 mg/kg i.v., 5 min, hydrochloride
[10] = 0.2 mg/kg i.v., 0 min, hydrochloride
[11] = 0.2 mg/kg i.v., 1 min, hydrochloride
[12] = 0.2 mg/kg i.v., 2 min, hydrochloride
[13] = 0.2 mg/kg i.v., 3 min, hydrochloride
[14] = 0.2 mg/kg i.v., 4 min, hydrochloride
[15] = 0.2 mg/kg i.v., 5 min, hydrochloride
[16] = 0.4 mg/kg i.v., 0 min, hydrochloride
[17] = 0.4 mg/kg i.v., 1 min, hydrochloride
[18] = 0.4 mg/kg i.v., 2 min, hydrochloride
[19] = 0.4 mg/kg i.v., 3 min, hydrochloride
[20] = 0.4 mg/kg i.v., 4 min, hydrochloride
[21] = 0.4 mg/kg i.v., 5 min, hydrochloride

For `COc1ccc(CCN(C)CCCC(C#N)(c2ccc(OC)c(OC)c2)C(C)C)cc1OC` (racemic) [racemic verapamil, benzeneacetonitrile, α-[3-[[2-(3,4-dimethoxyphenyl)ethyl]methylamino]propyl]-3,4-dimethoxy-α-(1-methylethyl) hydrochloride, reference compound], the “Rapid and reliable control of supraventricular tachycardia, in words” value [1] is given as “work well”, the AH time [2, 4] is given as 97 ± 16 ms and the Heart rate [2, 4] is given as 143 ± 11 beats per min. It also gave a Mean arterial pressure [2, 4] of 92 ± 4 mmHg, an AH time [2, 5] of 107 ± 12 ms and a Heart rate [2, 5] of 135 ± 6 beats per min. For the same compound, the Mean arterial pressure [2, 5] was 97 ± 4 mmHg, the AH time [2, 6] was 105 ± 9 ms and the Heart rate [2, 6] was 122 ± 7 beats per min. For the same compound, the Mean arterial pressure [2, 6] was 101 ± 5 mmHg, the AH time [2, 7] was 106 ± 8 ms and the Heart rate [2, 7] was 118 ± 6 beats per min. It also gave a Mean arterial pressure [2, 7] of 102 ± 5 mmHg, an AH time [2, 8] of 104 ± 7 ms and a Heart rate [2, 8] of 119 ± 7 beats per min. The Mean arterial pressure [2, 8] was 100 ± 4 mmHg, the AH time [2, 9] was 104 ± 6 ms and the Heart rate [2, 9] was 125 ± 8 beats per min. The Mean arterial pressure [2, 9] was 104 ± 4 mmHg, the AH time [2, 10] was 96 ± 8 ms and the Heart rate [2, 10] was 169 ± 4 beats per min. The Mean arterial pressure [2, 10] was 88 ± 5 mmHg, the AH time [2, 11] was 117 ± 11 ms and the Heart rate [2, 11] was 164 ± 8 beats per min. It also gave a Mean arterial pressure [2, 11] of 90 ± 3 mmHg, an AH time [2, 12] of 112 ± 7 ms and a Heart rate [2, 12] of 149 ± 10 beats per min. It also gave a Mean arterial pressure [2, 12] of 101 ± 4 mmHg, an AH time [2, 13] of 118 ± 9 ms and a Heart rate [2, 13] of 149 ± 10 beats per min. For the same compound, the Mean arterial pressure [2, 13] was 101 ± 6 mmHg, the AH time [2, 14] was 117 ± 8 ms and the Heart rate [2, 14] was 147 ± 12 beats per min. The Mean arterial pressure [2, 14] was 101 ± 4 mmHg, the AH time [2, 15] was 124 ± 8 ms and the Heart rate [2, 15] was 147 ± 13 beats per min. For the same compound, the Mean arterial pressure [2, 15] was 100 ± 5 mmHg, the “Occurrence of AV conduction block” value ([2]; 0.2 mg/kg i.v., listed as 50R/50S-verapamil, hydrochloride) was 3 animals and the AH time [2, 16] was 101 ± 10 ms. For the same compound, the Heart rate [2, 16] was 180 ± 11 beats per min, the Mean arterial pressure [2, 16] was 86 ± 8 mmHg and the AH time [2, 17] was 112 ± 10 ms. It also gave a Heart rate [2, 17] of 171 ± 7 beats per min, a Mean arterial pressure [2, 17] of 87 ± 8 mmHg and an AH time [2, 18] of 116 ± 5 ms. The Heart rate [2, 18] was 162 ± 3 beats per min, the Mean arterial pressure [2, 18] was 92 ± 7 mmHg and the AH time [2, 19] was 117 ± 7 ms. For the same compound, the Heart rate [2, 19] was 163 ± 5 beats per min, the Mean arterial pressure [2, 19] was 97 ± 6 mmHg and the AH time [2, 20] was 119 ± 8 ms. The Heart rate [2, 20] was 162 ± 4 beats per min, the Mean arterial pressure [2, 20] was 95 ± 8 mmHg and the AH time [2, 21] was 113 ± 5 ms. For the same compound, the Heart rate [2, 21] was 161 ± 9 beats per min, the Mean arterial pressure [2, 21] was 98 ± 6 mmHg and the “Occurrence of second and third degree AV conduction block” value ([2]; 0.4 mg/kg i.v., listed as 50R/50S-verapamil, hydrochloride) was 7 animals. For the same compound, the “Peak effect on HR, in words” value ([2]; dog, in vivo) was “drastic increase in HR”, the “QTc interval compared with 100R-verapamil, in words” value ([2]; dog, in vivo) was “significantly increased compared with 100R-verapamil” and the “Interaction between MAP and HR (multiple linear regression), in words” value ([2]; increase in HR against drop in MAP) was “greatest rate of increase in HR as opposed to a drop in MAP”. The “Sinus node recovery time (SNRT), significance” value ([2]; paced at 200 beats/min) was “significant decrease”, the Concentration in octanol [3] was 6020 ng/mL and 6360 ng/mL and 5830 ng/mL and the Concentration in water [3] was 5050 ng/mL and 4800 ng/mL and 4750 ng/mL.
